{"source": "patent US12692269B2", "about": "“Therapeutic compounds” (Genentech, Inc., priority 2019, dated 2026)", "format_in_all_cases": "binding", "key": {"TEAD1 YAP50-100": {"target": "TEAD1 YAP50-100 (Homo sapiens, UniProt P28347)", "sequence (P28347 167-426 limits assumed)": "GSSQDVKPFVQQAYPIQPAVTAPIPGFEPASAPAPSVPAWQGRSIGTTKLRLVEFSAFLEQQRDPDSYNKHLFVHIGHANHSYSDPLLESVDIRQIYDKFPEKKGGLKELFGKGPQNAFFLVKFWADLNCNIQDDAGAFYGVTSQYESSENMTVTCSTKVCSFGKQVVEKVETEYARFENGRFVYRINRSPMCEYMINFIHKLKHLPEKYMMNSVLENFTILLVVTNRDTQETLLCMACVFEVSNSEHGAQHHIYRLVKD", "assay": "TEAD1-YAP HTRF (TR-FRET) protein-protein interaction assay", "conditions": "TEAD1, YAP peptide 50-100, HTRF; for EC50: read-out: TEAD1 YAP50-100 HTRF combined: EC50", "description": "(§1) Purified His-tagged TEAD protein (YAP Binding Domain, amino acids 217-447) is pre-incubated with Europium labelled anti-His antibody tracer (Perkin Elmer Cat #AD0110). Small molecule Inhibitors are then incubated with the TEAD-Eu protein complex for 30 minutes to allow for binding to TEAD protein. Biotinylated YAP peptide for TEAD-YAP assays (AA's 50-100) or biotinylated TAZ peptide for TEAD-TAZ assays (AA's 13-57) that has been pre-incubated with streptavidin-xl665 acceptor (CIS-Bio Cat #610SAXAC) or is added to the compound-TEAD mix. The TEAD-YAP-inhibitor mixture is then incubated for 60 minutes at room temperature. All reactions are carried out in a polystyrene plate. After 60 minutes, the plate is read on a plate reader using TR-FRET mode with wavelengths of 665 nm/615 nm. If YAP or TAZ binds to TEAD as expected, a TR-FRET signal results from the proximity of YAP or TAZ and TEAD after binding. If an inhibitor such as peptide 17 (Selleckchem Cat #58164) interferes with YAP-TEAD or TAZ-TEAD binding, the disruption of the YAP or TAZ:TEAD interaction results in a decrease in TR-FRET signal. The potency of compounds as YAP:TEAD or TAZ:TEAD protein-protein interaction (PPi) inhibitors is determined by an IC50 or EC50 value generated using a non-linear four parameter curve fit."}, "TEAD2 YAP50-100": {"target": "TEAD2 YAP50-100 (Homo sapiens, UniProt Q15562)", "sequence (Q15562 217-447)": "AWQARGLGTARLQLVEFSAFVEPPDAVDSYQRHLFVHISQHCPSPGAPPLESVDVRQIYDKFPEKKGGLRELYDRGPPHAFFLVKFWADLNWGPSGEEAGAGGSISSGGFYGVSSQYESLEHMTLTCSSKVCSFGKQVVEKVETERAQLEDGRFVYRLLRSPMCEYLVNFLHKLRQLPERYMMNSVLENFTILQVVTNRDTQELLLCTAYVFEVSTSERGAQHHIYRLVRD", "assay": "TEAD2-YAP HTRF (TR-FRET) protein-protein interaction assay", "conditions": "TEAD2, YAP peptide 50-100, HTRF; for EC50: read-out: TEAD2 YAP50-100 HTRF combined: EC50", "description": "as §1"}, "TEAD3 YAP50-100": {"target": "TEAD3 YAP50-100 (Homo sapiens, UniProt Q99594)", "sequence (Q99594 173-435 limits assumed)": "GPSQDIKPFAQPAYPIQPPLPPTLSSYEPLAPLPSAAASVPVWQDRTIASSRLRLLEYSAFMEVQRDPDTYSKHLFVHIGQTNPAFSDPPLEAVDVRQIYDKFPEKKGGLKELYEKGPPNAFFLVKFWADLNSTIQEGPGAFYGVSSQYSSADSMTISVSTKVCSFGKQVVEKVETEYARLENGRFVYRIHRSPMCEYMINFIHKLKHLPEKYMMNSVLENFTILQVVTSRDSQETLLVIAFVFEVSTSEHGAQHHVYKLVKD", "assay": "TEAD3-YAP HTRF (TR-FRET) protein-protein interaction assay", "conditions": "TEAD3, YAP peptide 50-100, HTRF; for EC50: read-out: TEAD3 YAP50-100 HTRF combined: EC50", "description": "as §1"}, "TEAD4 YAP50-100": {"target": "TEAD4 YAP50-100 (Homo sapiens, UniProt Q15561)", "sequence (Q15561 217-434 limits assumed)": "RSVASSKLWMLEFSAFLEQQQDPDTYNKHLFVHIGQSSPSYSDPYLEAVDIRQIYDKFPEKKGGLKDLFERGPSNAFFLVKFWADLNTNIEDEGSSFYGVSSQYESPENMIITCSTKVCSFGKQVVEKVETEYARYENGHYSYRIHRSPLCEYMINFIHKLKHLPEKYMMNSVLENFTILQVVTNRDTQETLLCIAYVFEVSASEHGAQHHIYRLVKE", "assay": "TEAD4-YAP HTRF (TR-FRET) protein-protein interaction assay", "conditions": "TEAD4, YAP peptide 50-100, HTRF; for EC50: read-out: TEAD4 YAP50-100 HTRF combined: EC50", "description": "as §1"}, "[1]": {"target": "TEAD1 TAZ (amino acids 13-57) (Homo sapiens, UniProt P28347)", "sequence (P28347 167-426 limits assumed)": "as the sequence (P28347 167-426 limits assumed) above", "assay": "TEAD1-TAZ HTRF (TR-FRET) protein-protein interaction assay", "conditions": "for TEAD1 TAZ HTRF combined: Max % Inhibition: TEAD1, TAZ peptide; for EC50: TEAD1-TAZ HTRF, TR-FRET 665 nm/615 nm, read-out: TEAD1 TAZ HTRF combined: EC50", "description": "as §1"}, "[2]": {"target": "TEAD2 TAZ (amino acids 13-57) (Homo sapiens, UniProt Q15562)", "sequence (Q15562 217-447)": "as the sequence (Q15562 217-447) above", "assay": "TEAD2-TAZ HTRF (TR-FRET) protein-protein interaction assay", "conditions": "for TEAD2 TAZ HTRF combined: Max % Inhibition: TEAD2, TAZ peptide; for EC50: TEAD2-TAZ HTRF, TR-FRET 665 nm/615 nm, read-out: TEAD2 TAZ HTRF combined: EC50", "description": "as §1"}, "[3]": {"target": "TEAD3 TAZ (amino acids 13-57) (Homo sapiens, UniProt Q99594)", "sequence (Q99594 173-435 limits assumed)": "as the sequence (Q99594 173-435 limits assumed) above", "assay": "TEAD3-TAZ HTRF (TR-FRET) protein-protein interaction assay", "conditions": "for TEAD3 TAZ HTRF combined: Max % Inhibition: TEAD3, TAZ peptide; for EC50: TEAD3-TAZ HTRF, TR-FRET 665 nm/615 nm, read-out: TEAD3 TAZ HTRF combined: EC50", "description": "as §1"}, "[4]": {"target": "TEAD4 TAZ (amino acids 13-57) (Homo sapiens, UniProt Q15561)", "sequence (Q15561 217-434 limits assumed)": "as the sequence (Q15561 217-434 limits assumed) above", "assay": "TEAD4-TAZ HTRF (TR-FRET) protein-protein interaction assay", "conditions": "for TEAD4 TAZ HTRF combined: Max % Inhibition: TEAD4, TAZ peptide; for EC50: TEAD4-TAZ HTRF, TR-FRET 665 nm/615 nm, read-out: TEAD4 TAZ HTRF combined: EC50", "description": "as §1"}}, "data": [{"smiles": "CC(CO)c1nn2c(=O)cc(-c3ccc(C4CCCCC4)cc3)[nH]c2c1C(=O)N1CC[C@@H](C#N)C1", "note": "(single isomer, unassigned) [Final product obtained using Enantiomer A from Step 4, Example 54]", "values": [{"measurement": "TEAD1 YAP50-100 HTRF combined: Max % Inhibition", "setting": "TEAD1 YAP50-100", "result": 59.0, "unit": "%"}, {"measurement": "EC50", "setting": "TEAD1 YAP50-100", "result": 130, "unit": "nM"}, {"measurement": "TEAD2 YAP50-100 HTRF combined: Max % Inhibition", "setting": "TEAD2 YAP50-100", "result": 65.0, "unit": "%"}, {"measurement": "EC50", "setting": "TEAD2 YAP50-100", "result": 40, "unit": "nM"}, {"measurement": "TEAD3 YAP50-100 HTRF combined: Max % Inhibition", "setting": "TEAD3 YAP50-100", "result": 71.5, "unit": "%"}, {"measurement": "EC50", "setting": "TEAD3 YAP50-100", "result": 250, "unit": "nM"}, {"measurement": "TEAD4 YAP50-100 HTRF combined: Max % Inhibition", "setting": "TEAD4 YAP50-100", "result": 47.5, "unit": "%"}, {"measurement": "EC50", "setting": "TEAD4 YAP50-100", "result": 550, "unit": "nM"}, {"measurement": "TEAD1 TAZ HTRF combined: Max % Inhibition", "setting": "[1]", "result": 41.5, "unit": "%"}, {"measurement": "EC50", "setting": "[1]", "result": 240, "unit": "nM"}, {"measurement": "TEAD2 TAZ HTRF combined: Max % Inhibition", "setting": "[2]", "result": 71.0, "unit": "%"}, {"measurement": "EC50", "setting": "[2]", "result": 40, "unit": "nM"}, {"measurement": "TEAD3 TAZ HTRF combined: Max % Inhibition", "setting": "[3]", "result": 73.0, "unit": "%"}, {"measurement": "EC50", "setting": "[3]", "result": 260, "unit": "nM"}, {"measurement": "TEAD4 TAZ HTRF combined: Max % Inhibition", "setting": "[4]", "result": 44.5, "unit": "%"}, {"measurement": "EC50", "setting": "[4]", "result": 480, "unit": "nM"}]}, {"smiles": "Cc1nccnc1-c1nn2c(=O)cc(-c3ccc(OC(c4ccccc4)C(F)(F)F)cc3)[nH]c2c1C(=O)N1C[C@H](CF)[C@@H]1C", "note": "(single isomer, unassigned) [Final product obtained using Enantiomer B from Step 1, Example 56]", "values": [{"measurement": "TEAD1 YAP50-100 HTRF combined: Max % Inhibition", "setting": "TEAD1 YAP50-100", "result": 66.0, "unit": "%"}, {"measurement": "EC50", "setting": "TEAD1 YAP50-100", "result": 430, "unit": "nM"}, {"measurement": "TEAD2 YAP50-100 HTRF combined: Max % Inhibition", "setting": "TEAD2 YAP50-100", "result": 83.5, "unit": "%"}, {"measurement": "EC50", "setting": "TEAD2 YAP50-100", "result": 80, "unit": "nM"}, {"measurement": "TEAD3 YAP50-100 HTRF combined: Max % Inhibition", "setting": "TEAD3 YAP50-100", "result": 71.0, "unit": "%"}, {"measurement": "EC50", "setting": "TEAD3 YAP50-100", "result": 830, "unit": "nM"}, {"measurement": "TEAD4 YAP50-100 HTRF combined: Max % Inhibition", "setting": "TEAD4 YAP50-100", "result": 59.5, "unit": "%"}, {"measurement": "EC50", "setting": "TEAD4 YAP50-100", "result": 2850, "unit": "nM"}, {"measurement": "TEAD1 TAZ HTRF combined: Max % Inhibition", "setting": "[1]", "result": 60.5, "unit": "%"}, {"measurement": "EC50", "setting": "[1]", "result": 360, "unit": "nM"}, {"measurement": "TEAD2 TAZ HTRF combined: Max % Inhibition", "setting": "[2]", "result": 77.0, "unit": "%"}, {"measurement": "EC50", "setting": "[2]", "result": 70, "unit": "nM"}, {"measurement": "TEAD3 TAZ HTRF combined: Max % Inhibition", "setting": "[3]", "result": 68.0, "unit": "%"}, {"measurement": "EC50", "setting": "[3]", "result": 940, "unit": "nM"}, {"measurement": "TEAD4 TAZ HTRF combined: Max % Inhibition", "setting": "[4]", "result": 53.0, "unit": "%"}, {"measurement": "EC50", "setting": "[4]", "result": 2100, "unit": "nM"}]}, {"smiles": "C[C@H]1[C@@H](CF)CN1C(=O)c1c(-c2cnccn2)nn2c(=O)cc(-c3ccc(C4CCCCC4)cc3)[nH]c12", "note": "(single isomer, unassigned) [Isomer A, Example 39]", "values": [{"measurement": "TEAD1 YAP50-100 HTRF combined: Max % Inhibition", "setting": "TEAD1 YAP50-100", "result": 76.0, "unit": "%"}, {"measurement": "EC50", "setting": "TEAD1 YAP50-100", "result": 60, "unit": "nM"}, {"measurement": "TEAD2 YAP50-100 HTRF combined: Max % Inhibition", "setting": "TEAD2 YAP50-100", "result": 76.0, "unit": "%"}, {"measurement": "EC50", "setting": "TEAD2 YAP50-100", "result": 10, "unit": "nM"}, {"measurement": "TEAD3 YAP50-100 HTRF combined: Max % Inhibition", "setting": "TEAD3 YAP50-100", "result": 71.0, "unit": "%"}, {"measurement": "EC50", "setting": "TEAD3 YAP50-100", "result": 120, "unit": "nM"}, {"measurement": "TEAD4 YAP50-100 HTRF combined: Max % Inhibition", "setting": "TEAD4 YAP50-100", "result": 51.5, "unit": "%"}, {"measurement": "EC50", "setting": "TEAD4 YAP50-100", "result": 60, "unit": "nM"}, {"measurement": "TEAD1 TAZ HTRF combined: Max % Inhibition", "setting": "[1]", "result": 69.5, "unit": "%"}, {"measurement": "EC50", "setting": "[1]", "result": 70, "unit": "nM"}, {"measurement": "TEAD2 TAZ HTRF combined: Max % Inhibition", "setting": "[2]", "result": 77.0, "unit": "%"}, {"measurement": "EC50", "setting": "[2]", "result": 10, "unit": "nM"}, {"measurement": "TEAD3 TAZ HTRF combined: Max % Inhibition", "setting": "[3]", "result": 69.5, "unit": "%"}, {"measurement": "EC50", "setting": "[3]", "result": 130, "unit": "nM"}, {"measurement": "TEAD4 TAZ HTRF combined: Max % Inhibition", "setting": "[4]", "result": 58.0, "unit": "%"}, {"measurement": "EC50", "setting": "[4]", "result": 60, "unit": "nM"}]}, {"smiles": "C[C@@H]1[C@H](CF)CN1C(=O)c1c(-c2ncccn2)nn2c(=O)cc(-c3ccc(C4CCCCC4)cc3)[nH]c12", "note": "(single isomer, unassigned) [Isomer A, Example 40]", "values": [{"measurement": "TEAD1 YAP50-100 HTRF combined: Max % Inhibition", "setting": "TEAD1 YAP50-100", "result": 75.0, "unit": "%"}, {"measurement": "EC50", "setting": "TEAD1 YAP50-100", "result": 60, "unit": "nM"}, {"measurement": "TEAD2 YAP50-100 HTRF combined: Max % Inhibition", "setting": "TEAD2 YAP50-100", "result": 76.0, "unit": "%"}, {"measurement": "EC50", "setting": "TEAD2 YAP50-100", "result": 10, "unit": "nM"}, {"measurement": "TEAD3 YAP50-100 HTRF combined: Max % Inhibition", "setting": "TEAD3 YAP50-100", "result": 68.5, "unit": "%"}, {"measurement": "EC50", "setting": "TEAD3 YAP50-100", "result": 140, "unit": "nM"}, {"measurement": "TEAD4 YAP50-100 HTRF combined: Max % Inhibition", "setting": "TEAD4 YAP50-100", "result": 53.5, "unit": "%"}, {"measurement": "EC50", "setting": "TEAD4 YAP50-100", "result": 30, "unit": "nM"}, {"measurement": "TEAD1 TAZ HTRF combined: Max % Inhibition", "setting": "[1]", "result": 64.5, "unit": "%"}, {"measurement": "EC50", "setting": "[1]", "result": 80, "unit": "nM"}, {"measurement": "TEAD2 TAZ HTRF combined: Max % Inhibition", "setting": "[2]", "result": 70.5, "unit": "%"}, {"measurement": "EC50", "setting": "[2]", "result": 10, "unit": "nM"}, {"measurement": "TEAD3 TAZ HTRF combined: Max % Inhibition", "setting": "[3]", "result": 63.0, "unit": "%"}, {"measurement": "EC50", "setting": "[3]", "result": 160, "unit": "nM"}, {"measurement": "TEAD4 TAZ HTRF combined: Max % Inhibition", "setting": "[4]", "result": 53.0, "unit": "%"}, {"measurement": "EC50", "setting": "[4]", "result": 30, "unit": "nM"}]}]}
